From patent US20090137652A1, “METHODS FOR NEUROPROTECTION” (priority 2005, published 2009)

System: rats subjected to li-pilo SE
Assay: Quantification of cell densities 14 days after lithium-pilocarpine SE (Example 2)
Type: in vivo, rat
Conditions: 14 days after SE
Method: All rats received lithium chloride (3 meq/kg, i.p., Sigma, St Louis, Mo., U.S.A.) and about 20 h later, all animals received also methylscopolamine bromide (1 mg/kg, s.c., Sigma) that was administered to limit the peripheral effects of the convulsant. SE was induced by injecting pilocarpine hydrochloride (25 mg/kg, s.c., Sigma) 30 min after methylscopolamine. The effects of increasing doses of TC (RWJ) were studied in 5 groups of rats. […] The control group received vehicle instead of pilocarpine and TC.
At the moment, neuronal counting is still in progress in the second group of animals studied for epileptogenesis and long-term counting and the data concerning that part of the study will not be included in the present report. For neuronal counting, animals were deeply anesthetized with […] pentobarbital (Dolethal®, Vetoquinol, Lure, France). Brains were then removed and frozen. Serial 20 μm slices were cut in a cryostat, air-dried during several days before thionine staining. […] The grid of counting was placed on a well defined area of the cerebral structure of interest and counting was carried out with a microscopic enlargement of 200- or 400-fold defined for each single cerebral structure. Cell counts were performed twice on each side of three adjacent sections for each region by a single observer unaware of the animal's treatment. The number of cells obtained in the 12 counted fields in each cerebral structure was averaged. This procedure was used to minimize the potential errors that could result from double counting leading to overestimation of cell numbers. […] Counts involved only neurons with cell bodies larger than 10 μm. Cells with small cell bodies were considered as glial cells and were not counted.
For neuronal damage and epileptogenesis, statistical analysis between groups was performed by means of a one-way analysis of variance followed by a post-hoc Dunnett or Fisher test using the Statistica software.

SMILES: NC(=O)OC[C@@H](O)c1ccccc1Cl [Formula 7]
- number of neuronal cell bodies, Cerebral cortex, Piriform, layer II, ventral (pilo-TC60 (60 mg/kg), n = 11): 13.7 ± 4.2
- number of neuronal cell bodies, Cerebral cortex, Piriform, layer III (pilo-TC60 (60 mg/kg), n = 11): 6.4 ± 2.3
- number of neuronal cell bodies, Hippocampus, CA1 area (pilo-TC60 (60 mg/kg), n = 11): 31.9 ± 4.4**°°
- number of neuronal cell bodies, Hippocampus, CA3 area (pilo-TC60 (60 mg/kg), n = 11): 31.6 ± 1.4
- number of neuronal cell bodies, Hippocampus, Hilus (pilo-TC60 (60 mg/kg), n = 11): 32.8 ± 3.3
- number of neuronal cell bodies, Thalamus, Central medial (pilo-TC60 (60 mg/kg), n = 11): 83.7 ± 9.6
- number of neuronal cell bodies, Thalamus, Dorsolateral, medial, dorsal (pilo-TC60 (60 mg/kg), n = 11): 77.5 ± 3.9**°°
- number of neuronal cell bodies, Thalamus, Dorsolateral, ventral lateral (pilo-TC60 (60 mg/kg), n = 11): 56.7 ± 8.7
- number of neuronal cell bodies, Thalamus, Mediodorsal central (pilo-TC60 (60 mg/kg), n = 11): 24.1 ± 1
- number of neuronal cell bodies, Thalamus, Mediodorsal lateral (pilo-TC60 (60 mg/kg), n = 11): 18.9 ± 0.6
- number of neuronal cell bodies, Thalamus, Mediodorsal medial (pilo-TC60 (60 mg/kg), n = 11): 19.1 ± 2.6
- number of neuronal cell bodies, Amygdala, Basolateral (pilo-TC90 (90 mg/kg), n = 10): 40.7 ± 1.6°°
- number of neuronal cell bodies, Amygdala, Medial, dorsal anterior (pilo-TC90 (90 mg/kg), n = 10): 72.2 ± 5.7°°
- number of neuronal cell bodies, Amygdala, Medial, ventral posterior (pilo-TC90 (90 mg/kg), n = 10): 30.7 ± 3.7°°
- number of neuronal cell bodies, Cerebral cortex, Entorhinal, layer II, dorsal (pilo-TC90 (90 mg/kg), n = 10): 26.3 ± 0.9
- number of neuronal cell bodies, Cerebral cortex, Entorhinal, layer II, ventral (pilo-TC90 (90 mg/kg), n = 10): 25.4 ± 1.1°
- number of neuronal cell bodies, Cerebral cortex, Entorhinal, layer III/IV, dorsal (pilo-TC90 (90 mg/kg), n = 10): 26.7 ± 0.8
- number of neuronal cell bodies, Cerebral cortex, Entorhinal, layer III/IV, ventral (pilo-TC90 (90 mg/kg), n = 10): 23.7 ± 1.5°°
- number of neuronal cell bodies, Cerebral cortex, Piriform, layer II, dorsal (pilo-TC90 (90 mg/kg), n = 10): 32.4 ± 1.1°°
- number of neuronal cell bodies, Cerebral cortex, Piriform, layer II, ventral (pilo-TC90 (90 mg/kg), n = 10): 18.4 ± 4.0°°
- number of neuronal cell bodies, Cerebral cortex, Piriform, layer III (pilo-TC90 (90 mg/kg), n = 10): 9 ± 3.0°°
- number of neuronal cell bodies, Hippocampus, CA1 area (pilo-TC90 (90 mg/kg), n = 10): 47.7 ± 6.6*°
- number of neuronal cell bodies, Hippocampus, CA3 area (pilo-TC90 (90 mg/kg), n = 10): 35.1 ± 2.9
- number of neuronal cell bodies, Hippocampus, Hilus (pilo-TC90 (90 mg/kg), n = 10): 37.5 ± 3.1
- number of neuronal cell bodies, Thalamus, Central medial (pilo-TC90 (90 mg/kg), n = 10): 88.2 ± 8.5
- number of neuronal cell bodies, Thalamus, Dorsolateral, medial, dorsal (pilo-TC90 (90 mg/kg), n = 10): 79.4 ± 3.1**°°
- number of neuronal cell bodies, Thalamus, Dorsolateral, ventral lateral (pilo-TC90 (90 mg/kg), n = 10): 71.8 ± 5.3°°*
- number of neuronal cell bodies, Thalamus, Mediodorsal central (pilo-TC90 (90 mg/kg), n = 10): 27.4 ± 1.5
- number of neuronal cell bodies, Thalamus, Mediodorsal lateral (pilo-TC90 (90 mg/kg), n = 10): 22 ± 1.2*°
- number of neuronal cell bodies, Thalamus, Mediodorsal medial (pilo-TC90 (90 mg/kg), n = 10): 23.1 ± 2.8°°
- number of neuronal cell bodies, Amygdala, Basolateral (pilo-TC120 (120 mg/kg), n = 8): 42.7 ± 1.3°°
- number of neuronal cell bodies, Amygdala, Medial, dorsal anterior (pilo-TC120 (120 mg/kg), n = 8): 80.2 ± 2.6°°
- number of neuronal cell bodies, Amygdala, Medial, ventral posterior (pilo-TC120 (120 mg/kg), n = 8): 34.7 ± 1.7°°
- number of neuronal cell bodies, Cerebral cortex, Entorhinal, layer II, dorsal (pilo-TC120 (120 mg/kg), n = 8): 27.3 ± 0.5°°
- number of neuronal cell bodies, Cerebral cortex, Entorhinal, layer II, ventral (pilo-TC120 (120 mg/kg), n = 8): 25.1 ± 0.6
- number of neuronal cell bodies, Cerebral cortex, Entorhinal, layer III/IV, dorsal (pilo-TC120 (120 mg/kg), n = 8): 26.4 ± 0.7°°
- number of neuronal cell bodies, Cerebral cortex, Entorhinal, layer III/IV, ventral (pilo-TC120 (120 mg/kg), n = 8): 24.5 ± 1.4°°
- number of neuronal cell bodies, Cerebral cortex, Piriform, layer II, dorsal (pilo-TC120 (120 mg/kg), n = 8): 35.2 ± 1.1°°
- number of neuronal cell bodies, Cerebral cortex, Piriform, layer II, ventral (pilo-TC120 (120 mg/kg), n = 8): 30.5 ± 1.3°°
- number of neuronal cell bodies, Cerebral cortex, Piriform, layer III (pilo-TC120 (120 mg/kg), n = 8): 15 ± 2.2°°
- number of neuronal cell bodies, Hippocampus, CA1 area (pilo-TC120 (120 mg/kg), n = 8): 65.5 ± 2.9°°
- number of neuronal cell bodies, Hippocampus, CA3 area (pilo-TC120 (120 mg/kg), n = 8): 39.8 ± 1.5
- number of neuronal cell bodies, Hippocampus, Hilus (pilo-TC120 (120 mg/kg), n = 8): 44.8 ± 2.9
- number of neuronal cell bodies, Thalamus, Central medial (pilo-TC120 (120 mg/kg), n = 8): 108.2 ± 6.6°
- number of neuronal cell bodies, Thalamus, Dorsolateral, medial, dorsal (pilo-TC120 (120 mg/kg), n = 8): 89.8 ± 3.7*°
- number of neuronal cell bodies, Thalamus, Dorsolateral, ventral lateral (pilo-TC120 (120 mg/kg), n = 8): 79.0 ± 4.7°°
- number of neuronal cell bodies, Thalamus, Mediodorsal central (pilo-TC120 (120 mg/kg), n = 8): 29.9 ± 1.7°
- number of neuronal cell bodies, Thalamus, Mediodorsal lateral (pilo-TC120 (120 mg/kg), n = 8): 24.4 ± 1.1°°
- number of neuronal cell bodies, Thalamus, Mediodorsal medial (pilo-TC120 (120 mg/kg), n = 8): 28.6 ± 0.8°°
